Measurements as given in patent publication US10167262B2, “Herbicidal substituted 3-arylpyrazoles” (FMC CORPORATION, priority 2014, dated 2019).
Where two headings read alike, the source gives them in different places.

How the values were obtained:
Experiment in all cases: Test C pre-/postemergence greenhouse test, plant response rating 0-100
Type in all cases: in vivo
[1] = test system: ragweed (common ragweed, Ambrosia elatior); settings: Ambrosia artemisiifolia; for pest or weed control at 62 g/ha: 62 g ai/ha; for pest or weed control at 125 g/ha: 125 g ai/ha; for pest or weed control at 250 g/ha: 250 g ai/ha
Procedure, shortened: (§1)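 Plants were treated either at seeding (soil of loam and sand) or as 2–18 cm seedlings in a sphagnum peat mix, using test chemicals in a surfactant-containing non-phytotoxic solvent. Visual assessment relative to controls followed 13–15 days later.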

[2] = test system: blackgrass (Alopecurus myosuroides); settings: Alopecurus myosuroides; for pest or weed control at 62 g/ha: 62 g ai/ha; for pest or weed control at 125 g/ha: 125 g ai/ha; for pest or weed control at 250 g/ha: 250 g ai/ha; for pest or weed control at 500 g/ha: 500 g ai/ha
Procedure, shortened: as §1

[3] = test system: yellow nutsedge (Cyperus esculentus); settings: Cyperus; for pest or weed control at 62 g/ha: 62 g ai/ha; for pest or weed control at 125 g/ha: 125 g ai/ha; for pest or weed control at 250 g/ha: 250 g ai/ha; for pest or weed control at 500 g/ha: 500 g ai/ha
Procedure, shortened: as §1

corn (Zea mays) = settings: Zea mays; for Corn plant response rating (crop injury, 0 = no effect, 100 = complete kill) at 250 g/ha: 250 g ai/ha; for Corn plant response rating (crop injury, 0 = no effect, 100 = complete kill) at 500 g/ha: 500 g ai/ha
Procedure, shortened: as §1

soybean (Glycine max) = settings: Glycine max; for plant injury at 62 g/ha: 62 g ai/ha; for plant injury at 125 g/ha: 125 g ai/ha; for plant injury at 250 g/ha: 250 g ai/ha; for plant injury at 500 g/ha: 500 g ai/ha
Procedure, shortened: as §1

[4] = test system: lambsquarters (Chenopodium album); settings: Chenopodium album; for pest or weed control at 62 g/ha: 62 g ai/ha; for pest or weed control at 125 g/ha: 125 g ai/ha; for pest or weed control at 250 g/ha: 250 g ai/ha; for pest or weed control at 500 g/ha: 500 g ai/ha
Procedure, shortened: as §1

[5] = post-emergence, Postemergence, read-out: Plant response rating (0 to 100), Ragweed
[6] = post-emergence, Postemergence, scale 0 to 100
[7] = pre-emergence, Preemergence, read-out: Plant response rating, Ragweed
[8] = pre-emergence, Preemergence, read-out: Plant response rating, Blackgrass
[9] = post-emergence, Postemergence, read-out: Plant response rating (0 to 100), Nutsedge, Yellow
[10] = pre-emergence, Preemergence, read-out: Plant response rating, Nutsedge, Yellow
[11] = post-emergence, Postemergence, read-out: Plant response rating (0 to 100), Soybean
[12] = pre-emergence, Preemergence, read-out: Plant response rating, Soybean
[13] = post-emergence, Postemergence, read-out: Plant response rating (0 to 100), Lambsquarters
[14] = pre-emergence, Preemergence, read-out: Plant response rating, Lambsquarters

COC(OC)(c1ccccc1)c1c[nH]nc1-c1cc(Cl)cc(Cl)c1 [Compound 13, 3-(3,5-dichlorophenyl)-4-(dimethoxyphenylmethyl)-1H-pyrazole]
98%: pest or weed control at 250 g/ha [4, 6] | pest or weed control at 500 g/ha [4, 6]
40%: pest or weed control at 500 g/ha ([2]; pre-emergence, Preemergence)
10%: pest or weed control at 62 g/ha [2, 8] | pest or weed control at 125 g/ha [2, 8] | plant injury at 500 g/ha (soybean (Glycine max); [6])
80%: pest or weed control at 500 g/ha ([1]; post-emergence, Postemergence, 500 g ai/ha, scale 0 to 100) | pest or weed control at 125 g/ha [4, 13]
60%: plant injury at 500 g/ha (soybean (Glycine max); pre-emergence, Preemergence)
85%: pest or weed control at 62 g/ha [1, 7]
100%: pest or weed control at 125 g/ha [1, 7] | pest or weed control at 250 g/ha ([1]; pre-emergence, Preemergence) | pest or weed control at 62 g/ha [4, 14] | pest or weed control at 125 g/ha [4, 14] | pest or weed control at 250 g/ha ([4]; pre-emergence, Preemergence) | pest or weed control at 500 g/ha ([4]; pre-emergence, Preemergence)
0%: pest or weed control at 125 g/ha ([2]; post-emergence, Postemergence, scale 0 to 100, read-out: Plant response rating, Blackgrass) | pest or weed control at 250 g/ha [2, 6] | pest or weed control at 500 g/ha [2, 6] | pest or weed control at 62 g/ha [3, 9] | pest or weed control at 125 g/ha [3, 9] | pest or weed control at 250 g/ha [3, 6] | pest or weed control at 500 g/ha [3, 6] | pest or weed control at 62 g/ha [3, 10] | pest or weed control at 125 g/ha [3, 10] | pest or weed control at 250 g/ha ([3]; pre-emergence, Preemergence) | pest or weed control at 500 g/ha ([3]; pre-emergence, Preemergence) | plant injury at 62 g/ha (corn (Zea mays); post-emergence, Postemergence, 62 g ai/ha) | plant injury at 125 g/ha (corn (Zea mays); post-emergence, Postemergence, 125 g ai/ha) | Corn plant response rating (crop injury, 0 = no effect, 100 = complete kill) at 250 g/ha (corn (Zea mays); [6]) | Corn plant response rating (crop injury, 0 = no effect, 100 = complete kill) at 500 g/ha (corn (Zea mays); [6]) | Corn plant response rating (crop injury, 0 = no effect, 100 = complete kill) at 62 g/ha (corn (Zea mays); pre-emergence, Preemergence, 62 g ai/ha) | Corn plant response rating (crop injury, 0 = no effect, 100 = complete kill) at 125 g/ha (corn (Zea mays); pre-emergence, Preemergence, 125 g ai/ha) | Corn plant response rating (crop injury, 0 = no effect, 100 = complete kill) at 250 g/ha (corn (Zea mays); pre-emergence, Preemergence) | Corn plant response rating (crop injury, 0 = no effect, 100 = complete kill) at 500 g/ha (corn (Zea mays); pre-emergence, Preemergence) | plant injury at 62 g/ha (soybean (Glycine max); [11]) | plant injury at 125 g/ha (soybean (Glycine max); [11]) | plant injury at 250 g/ha (soybean (Glycine max); [6]) | plant injury at 62 g/ha (soybean (Glycine max); [12]) | plant injury at 125 g/ha (soybean (Glycine max); [12])
5%: pest or weed control at 62 g/ha ([2]; post-emergence, Postemergence, read-out: Plant response rating (0 to 100), Blackgrass)
75%: pest or weed control at 250 g/ha [1, 6] | plant injury at 250 g/ha (soybean (Glycine max); pre-emergence, Preemergence) | pest or weed control at 62 g/ha [4, 13]
50%: pest or weed control at 62 g/ha [1, 5] | pest or weed control at 125 g/ha [1, 5] | pest or weed control at 250 g/ha ([2]; pre-emergence, Preemergence)
